Measured values published in ChEMBL document CHEMBL1201862, “PubChem BioAssay data set” (2004).
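A five-concentration, 48-hour dose response in 96-well plates underlies each endpoint, interpolated linearly between surrounding concentrations. GI50 = concentration required for 50% inhibition of growth.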 Calls of active or inactive are those of the source. No stated cut-off is given here; in the data, active = GI50 up to about 1.1 µM and inactive = higher.

Key:
Assay in all cases: growth of human tumour cells (NCI), 48 h
KM12 = system: KM12
U-251 = system: U-251
MOLT-4 = system: MOLT-4
SN12C = system: SN12C
HOP-62 = system: HOP-62
SF-268 = system: SF-268
Malme-3M = system: Malme-3M
K562 = system: K562
COLO 205 = system: COLO 205
SK-MEL-28 = system: SK-MEL-28
DLD-1 = system: DLD-1
UACC-62 = system: UACC-62
SNB-19 = system: SNB-19
SR = system: SR
RXF 393 = system: RXF 393
CAKI-1 = system: CAKI-1
UACC-257 = system: UACC-257
SW-620 = system: SW-620
LOX IMVI = system: LOX IMVI
HCT-15 = system: HCT-15
KM-20L2 = system: KM-20L2
ACHN = system: ACHN
LXFL 529 = system: LXFL 529
HCT-116 = system: HCT-116
SK-MEL-5 = system: SK-MEL-5
RPMI-8226 = system: RPMI-8226
HL-60 = system: HL-60
IGROV-1 = system: IGROV-1
M19-MEL = system: M19-MEL
A498 = system: A498
EKVX = system: EKVX
SF-539 = system: SF-539
CCRF-CEM = system: CCRF-CEM
RXF 631 = system: RXF 631
TK-10 = system: TK-10
HT-29 = system: HT-29
SF-295 = system: SF-295
OVCAR-4 = system: OVCAR-4
NCI-H226 = system: NCI-H226
M14 = system: M14
NCI-H460 = system: NCI-H460
DMS-273 = system: DMS-273
OVCAR-5 = system: OVCAR-5
786-0 = system: 786-0
DMS-114 = system: DMS-114
HCC 2998 = system: HCC 2998
A549 = system: A549
SK-MEL-2 = system: SK-MEL-2
HOP-18 = system: HOP-18
SNB-78 = system: SNB-78
OVCAR-3 = system: OVCAR-3
HOP-92 = system: HOP-92
SK-OV-3 = system: SK-OV-3
NCI-H23 = system: NCI-H23
UO-31 = system: UO-31
SNB-75 = system: SNB-75
OVCAR-8 = system: OVCAR-8
XF498 = system: XF498
NCI-H522 = system: NCI-H522

Measured: GI50

N#CC(C(=O)C(=O)Nc1ccc(Cl)cc1)c1ccccc1 (stereo not given)
> 100 µM: HCT-15
inactive: KM12 > 100 µM | U-251 > 100 µM | MOLT-4 > 100 µM | SN12C > 100 µM | HOP-62 85.1 µM | SF-268 > 100 µM | Malme-3M > 100 µM | K562 > 100 µM | COLO 205 93.1 µM | SK-MEL-28 > 100 µM | DLD-1 > 100 µM | UACC-62 22.6 µM | SNB-19 > 100 µM | SR > 100 µM | RXF 393 > 100 µM | CAKI-1 > 100 µM | UACC-257 > 100 µM | SW-620 > 100 µM | LOX IMVI > 100 µM | KM-20L2 > 100 µM | ACHN > 100 µM | LXFL 529 > 100 µM | HCT-116 > 100 µM | SK-MEL-5 > 100 µM | RPMI-8226 > 100 µM | HL-60 > 100 µM | IGROV-1 > 100 µM | M19-MEL > 100 µM | A498 > 100 µM | EKVX > 100 µM | SF-539 > 100 µM | CCRF-CEM > 100 µM | RXF 631 > 100 µM | TK-10 > 100 µM | HT-29 > 100 µM | SF-295 > 100 µM | OVCAR-4 > 100 µM | NCI-H226 > 100 µM | M14 > 100 µM | NCI-H460 > 100 µM | DMS-273 > 100 µM | OVCAR-5 > 100 µM | 786-0 > 100 µM | DMS-114 > 100 µM | HCC 2998 > 100 µM | A549 > 100 µM | SK-MEL-2 > 100 µM | HOP-18 > 100 µM | SNB-78 > 100 µM | OVCAR-3 > 100 µM | HOP-92 > 100 µM | SK-OV-3 > 100 µM | NCI-H23 > 100 µM | UO-31 > 100 µM | SNB-75 > 100 µM

CS/C(c1ccccc1)=[N+](/C)[O-]
inactive: KM12 > 100 µM | U-251 > 100 µM | MOLT-4 > 100 µM | SN12C > 100 µM | HOP-62 > 100 µM | SF-268 > 100 µM | Malme-3M > 100 µM | K562 > 67.9 µM | COLO 205 > 43.3 µM | SK-MEL-28 > 100 µM | DLD-1 > 61.5 µM | UACC-62 > 100 µM | SNB-19 > 100 µM | OVCAR-8 > 100 µM | SR 24.2 µM | RXF 393 > 100 µM | CAKI-1 > 100 µM | UACC-257 > 100 µM | SW-620 > 100 µM | LOX IMVI > 43.3 µM | KM-20L2 > 100 µM | ACHN > 100 µM | LXFL 529 > 100 µM | HCT-116 > 80 µM | SK-MEL-5 > 100 µM | RPMI-8226 > 56.2 µM | HL-60 > 100 µM | IGROV-1 > 100 µM | M19-MEL > 100 µM | A498 > 100 µM | EKVX > 100 µM | XF498 > 100 µM | SF-539 > 100 µM | CCRF-CEM > 51.2 µM | RXF 631 > 100 µM | TK-10 > 100 µM | HT-29 > 75.9 µM | SF-295 > 100 µM | OVCAR-4 > 100 µM | M14 > 100 µM | NCI-H460 > 52.2 µM | OVCAR-5 > 100 µM | 786-0 > 100 µM | HCC 2998 > 100 µM | A549 > 100 µM | SK-MEL-2 > 100 µM | HOP-18 > 100 µM | SNB-78 > 100 µM | OVCAR-3 > 100 µM | HOP-92 > 100 µM | SK-OV-3 > 100 µM | NCI-H522 > 100 µM | NCI-H23 > 100 µM | UO-31 > 100 µM | SNB-75 > 64.6 µM
18.1 µM: HCT-15

C[C@H]1CC[P+](C)(c2ccccc2)C1 (stereo not given in full)
> 100 µM: HCT-15
inactive: KM12 > 100 µM | U-251 > 100 µM | MOLT-4 > 100 µM | SN12C > 100 µM | HOP-62 > 100 µM | Malme-3M > 100 µM | K562 > 100 µM | COLO 205 > 100 µM | SK-MEL-28 > 100 µM | DLD-1 > 100 µM | UACC-62 > 100 µM | SNB-19 > 100 µM | OVCAR-8 > 100 µM | SR > 100 µM | RXF 393 > 100 µM | UACC-257 > 100 µM | SW-620 > 100 µM | LOX IMVI > 100 µM | KM-20L2 > 100 µM | ACHN > 100 µM | LXFL 529 > 100 µM | HCT-116 > 100 µM | SK-MEL-5 > 100 µM | RPMI-8226 > 100 µM | HL-60 > 100 µM | IGROV-1 > 100 µM | M19-MEL > 100 µM | A498 > 100 µM | EKVX > 100 µM | SF-539 > 100 µM | CCRF-CEM > 100 µM | TK-10 > 100 µM | HT-29 > 100 µM | SF-295 > 100 µM | NCI-H226 > 100 µM | M14 > 100 µM | NCI-H460 > 100 µM | DMS-273 > 100 µM | OVCAR-5 > 100 µM | 786-0 > 100 µM | DMS-114 > 100 µM | HCC 2998 > 100 µM | A549 > 100 µM | SK-MEL-2 > 100 µM | HOP-18 > 100 µM | SNB-78 > 100 µM | OVCAR-3 > 100 µM | SK-OV-3 > 100 µM | NCI-H522 > 100 µM | NCI-H23 > 100 µM | UO-31 > 100 µM | SNB-75 > 100 µM
active: XF498 < 0.01 µM

CN(/N=C/c1cccc2cccnc12)c1ccccc1
inactive: KM12 78.3 µM | U-251 > 100 µM | MOLT-4 > 100 µM | SN12C > 100 µM | HOP-62 76.2 µM | SF-268 > 100 µM | Malme-3M > 100 µM | K562 > 100 µM | COLO 205 > 100 µM | SK-MEL-28 > 100 µM | DLD-1 > 100 µM | UACC-62 > 100 µM | SNB-19 59.8 µM | OVCAR-8 > 100 µM | RXF 393 41.9 µM | CAKI-1 7.85 µM | UACC-257 52 µM | SW-620 > 100 µM | LOX IMVI > 100 µM | KM-20L2 > 100 µM | ACHN 99.5 µM | LXFL 529 89.3 µM | SK-MEL-5 > 100 µM | RPMI-8226 > 100 µM | HL-60 > 100 µM | IGROV-1 73.6 µM | M19-MEL > 100 µM | A498 > 100 µM | EKVX > 100 µM | XF498 > 100 µM | SF-539 37.2 µM | CCRF-CEM > 100 µM | TK-10 71.1 µM | HT-29 44.2 µM | SF-295 99.3 µM | OVCAR-4 87.5 µM | NCI-H226 > 100 µM | M14 > 100 µM | NCI-H460 79.6 µM | DMS-273 85.7 µM | OVCAR-5 > 100 µM | 786-0 55.3 µM | DMS-114 > 100 µM | HCC 2998 86.1 µM | A549 > 100 µM | SK-MEL-2 41.1 µM | HOP-18 > 100 µM | SNB-78 > 100 µM | OVCAR-3 13.2 µM | HOP-92 51.9 µM | SK-OV-3 > 100 µM | NCI-H522 > 100 µM | NCI-H23 59.8 µM | UO-31 > 100 µM | SNB-75 20.4 µM
> 100 µM: HCT-15

COc1ccc2c(c1)[n+]([O-])c(-c1c(Cl)cccc1Cl)c(N)[n+]2[O-]
31.8 µM: HCT-15
inactive: KM12 87.3 µM | U-251 37.9 µM | MOLT-4 75.3 µM | SN12C 46.1 µM | SF-268 40.6 µM | Malme-3M 21.3 µM | K562 53.6 µM | COLO 205 30.2 µM | SK-MEL-28 29.9 µM | DLD-1 39.4 µM | UACC-62 37.7 µM | SNB-19 50 µM | OVCAR-8 61.7 µM | CAKI-1 50.5 µM | UACC-257 23.4 µM | SW-620 47.1 µM | LOX IMVI 66.1 µM | KM-20L2 42.2 µM | ACHN 62.4 µM | LXFL 529 39.9 µM | SK-MEL-5 22.9 µM | RPMI-8226 80.4 µM | HL-60 36.8 µM | IGROV-1 47.4 µM | M19-MEL 40.3 µM | A498 > 100 µM | EKVX 61.5 µM | XF498 24.6 µM | CCRF-CEM 57.7 µM | RXF 631 25.3 µM | TK-10 > 100 µM | HT-29 55.5 µM | SF-295 61 µM | OVCAR-4 71.8 µM | NCI-H226 79.6 µM | M14 31.5 µM | NCI-H460 44.4 µM | DMS-273 37.5 µM | OVCAR-5 > 100 µM | 786-0 56.5 µM | DMS-114 34.4 µM | HCC 2998 72.3 µM | A549 45.2 µM | SK-MEL-2 26 µM | SNB-78 69.3 µM | OVCAR-3 38.9 µM | HOP-92 45.6 µM | SK-OV-3 > 100 µM | NCI-H522 > 10 µM | NCI-H23 25.1 µM | UO-31 85.3 µM | SNB-75 > 100 µM
